In patent US10849875B2, “Cancer specific lipid targeted peptidomimetics” (University of Houston System, priority 2015, dated 2020):
Positions of bridges follow the written chain, without caps; N, C: chain ends. Non-standard residues stand in square brackets, D forms with d. Residues, ends and D or L forms follow the SMILES beside them. Chains are numbered I, II in the order given. Gly(N-piperonyl) = O=C(O)CNCc1ccc2c(c1)OCO2; N(4-MeOBn)Gly = COc1ccc(CNCC(=O)O)cc1; Nrpe = C[C@@H](NCC(=O)O)c1ccccc1; Nlys = NCCCCNCC(=O)O

How the values were obtained:
[1] = Lipid ELISA-like binding assay
Procedure: The direct binding of PPS1 to PS was tested. An ELISA-like assay was used. Two main lipids typically found on cell membrane, PS and PC, were immobilized separately on a 96-well plates and biotinylated PPS1 was incubated at an increasing concentration gradient. Presence of bound PPS1 was detected by HRP-streptavidin after appropriate blocking and washing. (FIG. 11A), PC was selected as the control because it is the most abundant neutral phospholipid found in the outer leaflet of the normal cell membranes. […] This indicates […] has specificity to PS over PC.
ELISA binding assay on PS and PC: PS and PC (Avanti Polar Lipids) were dissolved in hexane at 10 μg/ml concentration and added to Immulon 1B “U” bottom microtiter plates (Thermo) 50 μl/well. hexane was allowed to evaporate at room temp (in the hood). Plates were blocked by adding 200 μl 1% BSA in PBS to each well and incubated for 1 hour. Each well was washed with 3× w/200 μl PBS. Serial dilutions (0.5 μM to 0.0078 μM) of biotinylated PPS1 and PPS2 were dissolved in blocking buffer (100 μl/well) and incubated for 1 hr on shaker. Washed 5× w/200 μl PBS. Added 100 μl streptavidin-HRP (1:2000 in blocking buffer) to each well and incubated for 30 min. […] Stopped the reaction with 100 μl 0.18M H2SO4 Read OD at 490 nm.
Since PS is selectively exposed on the surface of HCC4017 cells compared with HBEC30KT, it was examined if PPS1D1 (FIG. 9B and FIG. 72) binds to PS directly. In an ELISA-like assay, PS and PC were coated separately on 96-well plates, biotinylated PPS1D1 (FIG. 65) was introduced in a concentration gradient and the bound compound was detected using standard streptavidin-HRP system.
Lipids (Avanti Polar Lipids) were dissolved in hexane at 10 μg/ml and coated on to Immulon 1B “U” bottom microtiter plates (ThermoFisher, MA). […] Plates were washed with 5× PBS and binding was detected with streptavidin-HRP (1:2000 in blocking buffer) followed by 100 μl OPD (Sigma-Aldrich). The reaction was stopped with 100 μl 0.18M H2SO4 and absorbance was read at 490 nm using the spectrophotometer (Spectramax i3, Molecular Devices, CA).

[2] = Lipid ELISA-like binding assay; remark: listed apart in the source
Excerpt: Structural features of PPS1and PS were compared to determine why PPS1 preferred PS over PC. PPS1 has three positive charged residues aligned together and a hydrophobic region with four consecutive aromatic rings (FIG. 9A). This can perfectly form both electrostatic and hydrophobic interactions with opposing negatively charged PS head groups and its hydrophobic tail regions.
One of the major questions arising at this point is how PPS1 or PPS1D1 specifically recognizes PS over PC, as both lipids have negatively charged phosphate head groups. To address this specificity concern, ELISA-like binding assay were expanded to include other membrane phospholipids such as phosphatidylethanolamine (PE), sphingomyelin (SM), phosphatidic acid (PA), phosphatidylinositol (PI) and phosphatidylglycerol (PG). […] This additional negative charge can be responsible for the interaction with the positively charged region of PPS1 or PPS1D1, while the hydrophobic regions of PPS1 or PPS1D1 may interact with hydrophobic tail groups of the lipids through van der Waals forces. […] The membrane was treated with biotin labeled PPS1D1 and binding was detected by immunoblotting with streptavidin-HRP. […] It has been reported that PS can form a bilayer lamellar and reverse hexagonal phase. PS is mainly in a lamellar phase after hydration at physiological pH. By validating our binding through an ELISA-like assay and liposomes, PPS1D1 has an equal opportunity to bind to each phase of PS.
Lipids (Avanti Polar Lipids) were dissolved in hexane at 10 μg/ml and coated on to Immulon 1B “U” bottom microtiter plates (ThermoFisher, MA). Hexane was evaporated at room temp (in the hood) and the plates were blocked with 200 μl of 1% BSA in PBS for 1 hour. Plates were washed with 3× PBS. […] Plates were washed with 5× PBS and binding was detected with streptavidin-HRP (1:2000 in blocking buffer) followed by 100 μl OPD (Sigma-Aldrich). The reaction was stopped with 100 μl 0.18M H2SO4 and absorbance was read at 490 nm using the spectrophotometer (Spectramax i3, Molecular Devices, CA).

[3] = tested on: HCC4017, H460, HCC95, H1693, H1395 lung cancer cell lines; assay: MTS cell viability assay on series of lung cancer cell lines; type: cell-based, human
Excerpt: In this current study, the target of PPS1D1 is PS and HCC4017 strongly expresses PS. Our next goal was to evaluate the level of PS externalization on other lung cancer cell lines and the activity profile of PPS1D1 on those cell lines. A variety of lung cancer cell lines HCC4017 (lung adenocarcinoma), H460 (large cell lung cancer), H1395 (lung adenocarcinoma), HCC95 (squamous cell lung carcinoma), H1993 (adenocarcinoma; non-small cell lung cancer), H1695 and HBEC30KT (normal bronchial epithelial cells) were treated with fluorescein-labeled Annexin V (FITC-Annexin V) and the bound fluorescein signal was detected using flow cytometry. […] Standard cell viability (MTS) assay by treating these cell lines with PPS1D1 (1 and 20 μM) and 20 μM of a control compound PC462D1 (FIG. 68) in 96-well plates were performed. […] PPS1D1 had no effect on normal HBEC30KT cells at either concentration.
HCC4017, H460, HCC95, H1693, H1395 and HBEC30KT cells were grown in clear bottom 96 well plates. On second day, lung cancer cells were treated with PPS1, PPS1D1 and control PC462D1 in RPMI medium with 10% FBS containing 3% BSA. HBEC30KT was treated with PPS1, PPS1D1 and control PC462D1 in KSFM media with 3% BSA.

[4] = tested on: HCC4017 xenografts; assay: Tumor burden effect on HCC4017 xenografts; type: in vivo, mice; conditions: initial data, heterogeneous tumors
Procedure: The actual tumor burden effects of PPS1D1 on HCC4017 xenografts were studied. The study was planned with 4 groups. […] It took a long time to grow and created a very heterogeneous xenograft population. PPS1D1 treatment was performed, but due to the high heterogeneity of the tumors, most of the mice in every group had to be sacrificed as they reached the maximum allowed limits.

SMILES: COc1ccc(CN(CC(=O)N(CCCCN)CC(=O)N[C@@H](CCCCN)C(=O)N[C@H](CCCCN)C(=O)N[C@@H](CCSC)C(=O)NCCCC[C@H](NC(=O)[C@H](CCSC)NC(=O)[C@@H](CCCCN)NC(=O)[C@H](CCCCN)NC(=O)CN(CCCCN)C(=O)CN(Cc2ccc(OC)cc2)C(=O)CN(C(=O)CN(Cc2ccc3c(c2)OCO3)C(=O)CN[C@H](C)c2ccccc2)[C@H](C)c2ccccc2)C(N)=O)C(=O)CN(C(=O)CN(Cc2ccc3c(c2)OCO3)C(=O)CN[C@H](C)c2ccccc2)[C@H](C)c2ccccc2)cc1 [PPS1D1] (I: H-[Nrpe][Gly(N-piperonyl)][Nrpe][N(4-MeOBn)Gly][Nlys]K[dK]MK-NH2 / II: H-[Nrpe][Gly(N-piperonyl)][Nrpe][N(4-MeOBn)Gly][Nlys]K[dK]M; amide I:9-II:C; N-terminus assumed)
- binding to PC ([1]; PC-coated ELISA plates): very high specificity over the PC
- binding to PS ([1]; PS-coated ELISA plates): strongest affinity
- Kd ([1]; PS-coated ELISA plates, biotinylated compound, streptavidin-HRP): ~55 nM
- binding to PA [2]: displayed binding
- binding to PG [2]: displayed binding
- binding to PI [2]: displayed binding
- cytotoxicity on lung cancer cell lines ([3]; 1 μM): not at 1 μM
- cytotoxicity on lung cancer cell lines ([3]; 20 μM): strong cytotoxicity
- tumor growth [4]: capable of reducing the tumor growth
